Assay results as given in patent US9546401B2, “Assays and methods for selecting a treatment regimen for a subject with depression” (The General Hospital Corporation, priority 2011, dated 2017).
Read-outs that look alike come from different tables or passages of the source.

Columns and labels:
[1] = system: SSRI-resistant outpatients with major depressive disorder (MDD);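 for adverse side effect when administered with an SSRI: adverse events recorded at every visit with the SAFTEE-SI in a 60-day double-blind sequential parallel trial of two 30-day phases, visits every 10 days, placebo as comparator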
Experimental: Documentation of the presence of any side effect or adverse event is completed at every visit using the SAFTEE-SI. Subjects can contact a clinician at any time between visits concerning adverse events or worsening of symptoms. Suicidal ideation is assessed at each visit. Subjects who are felt by the study clinician to be at high risk for suicide are discontinued from the study and referred for hospitalization and further treatment if clinically indicated (See Tables 4 & 5 below).
One-way analysis of variance can be used to assess differences in total number of SAFTEE-SI AEs between baseline and endpoint.

[2] = system: MDD patients, remitters at end of double-blind phase; conditions: for Relapsers (HAM-D-17 > 15) during 12-month maintenance phase: 15 mg/day as adjuvant
Experimental: During each visit, patients are administered the HAM-D-28, the CGI, the QIDS-SR, the SAFTEE-SI, the MGH-CPFQ, and the MGH-SFQ (See, e.g., Table 10 below). […] Subjects are also allowed to change their antidepressant during the course of the follow-up, if deemed appropriate. For patients who refuse the 12 months of free follow-up care, a referral to a psychiatrist is offered.

[3] = system: SSRI-resistant outpatients with major depressive disorder (MDD); conditions: for Cardiovascular side effects, NNH / Gastrointestinal side effects, NNH / Infectious side effects, NNH / Miscellaneous side effects, NNH / Psychological side effects, NNH / Sexual side effects, NNH / Sleep side effects, NNH / Somatic side effects, NNH: versus placebo;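 for adverse side effect when administered with an SSRI: adverse events recorded at every visit with the SAFTEE-SI in a 60-day double-blind sequential parallel trial of two 30-day phases, visits every 10 days, placebo as comparator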
Description: The study involved the enrollment of a total of 148 patients with MDD over the course of 12 months across 10 medical centers or hospitals in the United States. […] In accordance with the sequential parallel design [51], the 60-day, double-blind treatment was divided into two phases of 30 days each, with assessments performed every 10 days.

[4] = Trial 2, 15 mg + SSRI, versus placebo

`CN1c2c(nc(N)[nH]c2=O)NC[C@@H]1CNc1ccc(C(=O)N[C@@H](CCC(=O)O)C(=O)O)cc1` [6(S)-5-MTHF, 6(S)-5-methyltetrahydrofolate] was tested, and the “number of adverse events (SAFTEE-SI)” value ([1]; SSRI + 15 mg/day versus SSRI + placebo) was “no significant differences in the number of adverse events”, the “discontinuation due to overall adverse side-effects or exclusion events” value ([1]; Trial 2) was “no difference in discontinuation” and the “Cardiovascular side effects, Frequency” value ([1]; Trial 2, 15 mg + SSRI, n = 42) was 0. For the same compound, the “Cardiovascular side effects, Frequency (%)” value ([1]; Trial 2, 15 mg + SSRI, n = 42) was “(0%)”, the “Gastrointestinal side effects, Frequency” value ([1]; Trial 2, 15 mg + SSRI, n = 42) was 7 and the “Gastrointestinal side effects, Frequency (%)” value ([1]; Trial 2, 15 mg + SSRI, n = 42) was “(16.7%)”. The “Infectious side effects, Frequency” value ([1]; Trial 2, 15 mg + SSRI, n = 42) was 5, the “Infectious side effects, Frequency (%)” value ([1]; Trial 2, 15 mg + SSRI, n = 42) was “(11.9%)” and the “Miscellaneous side effects, Frequency” value ([1]; Trial 2, 15 mg + SSRI, n = 42) was 1. For the same compound, the “Miscellaneous side effects, Frequency (%)” value ([1]; Trial 2, 15 mg + SSRI, n = 42) was “(2.4%)”, the “Psychological side effects, Frequency” value ([1]; Trial 2, 15 mg + SSRI, n = 42) was 4 and the “Psychological side effects, Frequency (%)” value ([1]; Trial 2, 15 mg + SSRI, n = 42) was “(9.5%)”. The “Sexual side effects, Frequency” value ([1]; Trial 2, 15 mg + SSRI, n = 42) was 1, the “Sexual side effects, Frequency (%)” value ([1]; Trial 2, 15 mg + SSRI, n = 42) was “(2.4%)” and the “Sleep side effects, Frequency” value ([1]; Trial 2, 15 mg + SSRI, n = 42) was 1. The “Sleep side effects, Frequency (%)” value ([1]; Trial 2, 15 mg + SSRI, n = 42) was “(2.4%)”, the “Somatic side effects, Frequency” value ([1]; Trial 2, 15 mg + SSRI, n = 42) was 6 and the “Somatic side effects, Frequency (%)” value ([1]; Trial 2, 15 mg + SSRI, n = 42) was “(14.3%)”. For the same compound, the “Cardiovascular side effects, NNH” value [1, 4] was “=placebo”, the “Gastrointestinal side effects, NNH” value [1, 4] was 53 and the “Infectious side effects, NNH” value [1, 4] was “<placebo”. For the same compound, the “Miscellaneous side effects, NNH” value [1, 4] was “<placebo”, the “Psychological side effects, NNH” value [1, 4] was “<placebo” and the “Sexual side effects, NNH” value [1, 4] was 98. For the same compound, the “Sleep side effects, NNH” value [1, 4] was “<placebo”, the “Somatic side effects, NNH” value [1, 4] was “<placebo” and the “Relapsers (HAM-D-17 > 15) during 12-month maintenance phase” value ([2]; Trial 1, 2 remitters entering maintenance) was 0. For the same compound, the “Relapsers (HAM-D-17 > 15) during 12-month maintenance phase” value ([2]; Trial 2, 9 remitters entering maintenance) was 0, the “relapse during 12-month maintenance phase” value ([2]; remitters at end of double-blind phase, 15 mg/day adjunctive) was “did not have a relapse” and the “adverse side effect when administered with an SSRI” value ([3]; Trial 1) was “does not appear to cause any adverse side effect”. For the same compound, the “Cardiovascular side effects, Frequency” value ([3]; Trial 1, 7.5 mg + SSRI, n = 94) was 0, the “Cardiovascular side effects, Frequency (%)” value ([3]; Trial 1, 7.5 mg + SSRI, n = 94) was “(0%)” and the “Gastrointestinal side effects, Frequency” value ([3]; Trial 1, 7.5 mg + SSRI, n = 94) was 9. For the same compound, the “Gastrointestinal side effects, Frequency (%)” value ([3]; Trial 1, 7.5 mg + SSRI, n = 94) was “(9.6%)”, the “Infectious side effects, Frequency” value ([3]; Trial 1, 7.5 mg + SSRI, n = 94) was 6 and the “Infectious side effects, Frequency (%)” value ([3]; Trial 1, 7.5 mg + SSRI, n = 94) was “(6.4%)”. For the same compound, the “Miscellaneous side effects, Frequency” value ([3]; Trial 1, 7.5 mg + SSRI, n = 94) was 1, the “Miscellaneous side effects, Frequency (%)” value ([3]; Trial 1, 7.5 mg + SSRI, n = 94) was “(1.1%)” and the “Psychological side effects, Frequency” value ([3]; Trial 1, 7.5 mg + SSRI, n = 94) was 2. The “Psychological side effects, Frequency (%)” value ([3]; Trial 1, 7.5 mg + SSRI, n = 94) was “(2.1%)”, the “Sexual side effects, Frequency” value ([3]; Trial 1, 7.5 mg + SSRI, n = 94) was 0 and the “Sexual side effects, Frequency (%)” value ([3]; Trial 1, 7.5 mg + SSRI, n = 94) was “(0%)”. The “Sleep side effects, Frequency” value ([3]; Trial 1, 7.5 mg + SSRI, n = 94) was 3, the “Sleep side effects, Frequency (%)” value ([3]; Trial 1, 7.5 mg + SSRI, n = 94) was “(3.2%)” and the “Somatic side effects, Frequency” value ([3]; Trial 1, 7.5 mg + SSRI, n = 94) was 9. For the same compound, the “Somatic side effects, Frequency (%)” value ([3]; Trial 1, 7.5 mg + SSRI, n = 94) was “(9.6%)”, the “Cardiovascular side effects, NNH” value ([3]; Trial 1, 7.5 mg + SSRI) was “<placebo” and the “Gastrointestinal side effects, NNH” value ([3]; Trial 1, 7.5 mg + SSRI) was “<placebo”. The “Infectious side effects, NNH” value ([3]; Trial 1, 7.5 mg + SSRI) was “<placebo”, the “Miscellaneous side effects, NNH” value ([3]; Trial 1, 7.5 mg + SSRI) was “<placebo” and the “Psychological side effects, NNH” value ([3]; Trial 1, 7.5 mg + SSRI) was “<placebo”. For the same compound, the “Sexual side effects, NNH” value ([3]; Trial 1, 7.5 mg + SSRI) was “=placebo”, the “Sleep side effects, NNH” value ([3]; Trial 1, 7.5 mg + SSRI) was “<placebo” and the “Somatic side effects, NNH” value ([3]; Trial 1, 7.5 mg + SSRI) was “<placebo”. The “Cardiovascular side effects, Frequency” value ([3]; Trial 1, 15 mg + SSRI, n = 30) was 2, the “Cardiovascular side effects, Frequency (%)” value ([3]; Trial 1, 15 mg + SSRI, n = 30) was “(6.7%)” and the “Gastrointestinal side effects, Frequency” value ([3]; Trial 1, 15 mg + SSRI, n = 30) was 3. For the same compound, the “Gastrointestinal side effects, Frequency (%)” value ([3]; Trial 1, 15 mg + SSRI, n = 30) was “(10.0%)”, the “Infectious side effects, Frequency” value ([3]; Trial 1, 15 mg + SSRI, n = 30) was 2 and the “Infectious side effects, Frequency (%)” value ([3]; Trial 1, 15 mg + SSRI, n = 30) was “(6.7%)”. The “Miscellaneous side effects, Frequency” value ([3]; Trial 1, 15 mg + SSRI, n = 30) was 2, the “Miscellaneous side effects, Frequency (%)” value ([3]; Trial 1, 15 mg + SSRI, n = 30) was “(6.7%)” and the “Psychological side effects, Frequency” value ([3]; Trial 1, 15 mg + SSRI, n = 30) was 2. For the same compound, the “Psychological side effects, Frequency (%)” value ([3]; Trial 1, 15 mg + SSRI, n = 30) was “(6.7%)”, the “Sexual side effects, Frequency” value ([3]; Trial 1, 15 mg + SSRI, n = 30) was 0 and the “Sexual side effects, Frequency (%)” value ([3]; Trial 1, 15 mg + SSRI, n = 30) was “(0%)”. The “Sleep side effects, Frequency” value ([3]; Trial 1, 15 mg + SSRI, n = 30) was 2, the “Sleep side effects, Frequency (%)” value ([3]; Trial 1, 15 mg + SSRI, n = 30) was “(6.7%)” and the “Somatic side effects, Frequency” value ([3]; Trial 1, 15 mg + SSRI, n = 30) was 3. The “Somatic side effects, Frequency (%)” value ([3]; Trial 1, 15 mg + SSRI, n = 30) was “(10.0%)”, the “Cardiovascular side effects, NNH” value ([3]; Trial 1, 15 mg + SSRI) was “<placebo” and the “Gastrointestinal side effects, NNH” value ([3]; Trial 1, 15 mg + SSRI) was “<placebo”. For the same compound, the “Infectious side effects, NNH” value ([3]; Trial 1, 15 mg + SSRI) was “<placebo”, the “Miscellaneous side effects, NNH” value ([3]; Trial 1, 15 mg + SSRI) was “<placebo” and the “Psychological side effects, NNH” value ([3]; Trial 1, 15 mg + SSRI) was “<placebo”. For the same compound, the “Sexual side effects, NNH” value ([3]; Trial 1, 15 mg + SSRI) was “=placebo”, the “Sleep side effects, NNH” value ([3]; Trial 1, 15 mg + SSRI) was “<placebo” and the “Somatic side effects, NNH” value ([3]; Trial 1, 15 mg + SSRI) was “<placebo”.
